Columns and labels:
[1] = tested on: virus strain Ia/California/07/09 (H1N1); assay: microbe, parasite or virus in culture; assay type: cell-based, influenza virus Ia/California/07/09 (H1N1) in MDCK cells; conditions: for IC50: Influenza A virus, H1N1, MDCK
[2] = tested on: highly pathogenic strain Ia/duck/MN/1525/81 (H5N1); assay: microbe, parasite or virus in culture; assay type: cell-based, influenza virus Ia/duck/MN/1525/81 (H5N1) in MDCK cells; conditions: for IC50: Influenza A virus, H5N1, MDCK
[3] = tested on: influenza virus A/Aichi/2/69 (H3N2); set-up: species or system mice; conditions: mouse, in vivo; for efficiency of treating influenza pneumonia in mice: po, 25 mg/kg/day
[4] = target: neuraminidase of influenza virus A/California/04/09 (Influenza A virus, UniProt C3W5S3); assay type: biochemical; conditions: for IC50: read-out: neuraminidase activity IC50
[5] = target: neuraminidase of influenza virus A/California/07/09 (H1N1) (Influenza A virus, UniProt C3W6G3); assay type: biochemical; conditions: read-out: IC50, nM (number of experiments)
[6] = target: neuraminidase of influenza virus B/Brisbane/60/2008 (Influenza B virus, UniProt C0LT34); assay type: biochemical; conditions: read-out: IC50, nM (number of experiments)
[7] = target: neuraminidase of influenza virus B/Pert/211/2001 (197D) (Influenza B virus, UniProt Q3S340); assay type: biochemical; conditions: read-out: IC50, nM (number of experiments)
[8] = target: neuraminidase of influenza virus A/Aichi/2/69 (H3N2) (Influenza A virus, UniProt Q75VQ4); assay type: biochemical; conditions: read-out: IC50, nM (number of experiments)

CC(=O)NC1C(NC(=N)N)C=C(C(=O)O)OC1C(O)C(O)CO [Zan, 5-Acetamido-2,3-didehydro-3,4,5-trideoxy-4-guanidino-alpha-D-glycero-D-galacto-2-nonulopyranosonic acid, reference compound]
IC50 [1]: 16000 nM
IC50 [2]: 51200 nM

CCOC(=O)C1=C[C@@H](OC(CC)CC)[C@H](NC(C)=O)[C@@H](N)C1 [Tamiflu, reference compound]
death of treated animals by the time the last animal of virus control group died [3]: prevented completely
weight loss of treated animals [3]: did not lose weight

CCC(CC)O[C@@H]1C=C(C(=O)OC2CCCCC2)C[C@H](NC(=N)N)[C@H]1NC(=O)C(F)F [1.9, 2-cyclohexyl (3R,4R,5S)-5-guanidino-4-(2,2-difluoroacetamido)-3-(pentan-3-yloxy)cyclohex-1-enecarboxylate]
IC50 [4]: < 1 nM

CCC(CC)O[C@@H]1C=C(C(=O)OCCOC)C[C@H](NC(=N)N)[C@H]1NC(=O)C(F)F [1.12, 2-methoxyethyl (3R,4R,5S)-5-guanidino-4-(2,2-difluoroacetamido)-3-(pentan-3-yloxy)cyclohex-1-enecarboxylate]
IC50 [4]: < 1 nM

CCC(CC)O[C@@H]1C=C(C(=O)O)C[C@H](N)[C@H]1NC(C)=O [A2, (3R,4R,5S)-5-amino-4-acetamido-3-(pentan-3-yloxy)cyclohex-1-enecarboxylic acid, reference compound]
IC50 [1]: 9900 nM
IC50 [2]: 77500 nM

CCC(CC)O[C@@H]1C=C(C(=O)O)C[C@H](NC(=N)N)[C@H]1NC(=O)CF [1.1, (3R,4R,5S)-5-guanidino-4-fluoroacetamido-3-(pentan-3-yloxy)cyclohex-1-enecarboxylic acid]
times more active than A2 [4]: 4
times more active than A4 [4]: 400
IC50 [5]: 0.18 nM
IC50 [6]: 1.27 nM
IC50 [7]: 2.08 nM
IC50 [8]: 0.69 nM
more active than Oseltamivir carboxylate (A2) by factor [1]: 13
more active than Zanamivir (Zan) by factor [1]: 20
IC50 [1]: 780 nM
activity higher than that of Oseltamivir carboxylate, times [2]: 24
activity higher than that of Zanamivir (Zan), times [2]: 16
IC50 [2]: 3200 nM

CCC(CC)O[C@@H]1C=C(C(=O)OCCc2ccccc2)C[C@H](NC(=N)N)[C@H]1NC(=O)C(F)F [1.10, 2-phenylethyl (3R,4R,5S)-5-guanidino-4-(2,2-difluoroacetamido)-3-(pentan-3-yloxy)cyclohex-1-enecarboxylate]
IC50 [4]: < 1 nM

CCOC(=O)C1=C[C@@H](OC(CC)CC)[C@H](NC(=O)CF)[C@@H](NC(=N)N)C1 [1.3, ethyl (3R,4R,5S)-5-guanidino-4-fluoroacetamido-3-(pentan-3-yloxy)cyclohex-1-enecarboxylate]
efficiency of treating influenza pneumonia in mice [3]: high efficiency

CCOC(=O)C1=C[C@@H](OC(CC)CC)[C@H](NC(=O)C(F)F)[C@@H](NC(=N)N)C1 [1.6, ethyl (3R,4R,5S)-5-guanidino-4-difluoroacetamido-3-(pentan-3-yloxy)cyclohex-1-enecarboxylate]
efficiency of treating influenza pneumonia in mice [3]: high efficiency

CCC(CC)O[C@@H]1C=C(C(=O)O)C[C@H](NC(=N)N)[C@H]1NC(=O)C(F)F [1.4, (3R,4R,5S)-5-guanidino-4-difluoroacetamido-3-(pentan-3-yloxy)cyclohex-1-enecarboxylic acid]
times more active than A2 [4]: 2.7
times more active than A4 [4]: 267

CCC(CC)O[C@@H]1C=C(C(=O)OCCc2cccnc2)C[C@H](NC(=N)N)[C@H]1NC(=O)C(F)F [1.11, 2-pyridin-3-ylethyl (3R,4R,5S)-5-guanidino-4-(2,2-difluoroacetamido)-3-(pentan-3-yloxy)cyclohex-1-enecarboxylate]
IC50 [4]: < 1 nM
